The text below walks through data of patent US8178709B2, “Iron preparation suitable for pharmaceutical formulation and process for the preparation thereof” (BioLink Life Sciences, Inc., priority 2009, dated 2012).

The subject of one data set is macrophages. The following applies: ferric citrate-treated macrophages; cited from earlier work.
Another data set has as its target human apotransferrin (Homo sapiens, UniProt P02787). The data set can be described thus: Iron binding to human apotransferrin (method of Bates, absorbance at 470 nm). The following applies: Tris buffer with bicarbonate, pH 7.5, 25.0° C., FIG. 1. The text has this:
The major iron transport pool in human serum is iron bound to apotransferrin, an 80 kDa bilobal protein with two iron binding sites. The function of apotransferrin is: i) to bind iron and as transferrin (iron-laden apotransferrin) move iron from storage depots (ferritin) to various cell receptors; ii) to prevent iron from engaging in redox reactions which produce toxic free radicals; and iii) to prevent bacterial acquisition of this essential nutrient. Consequently, the best way to introduce iron into the normal metabolic pool is to deliver it to apotransferrin. […] Therefore, we measured the kinetics of Fe-transferrin formation from iron preparations of the invention and compared the kinetics to the kinetics of Fe-transferrin formation from commercial soluble ferric pyrophosphate and ferric sulfate-NTA complex at identical conditions according to the method of Bates, et al. [Bates, G. W., Billups, C. […]
The following test articles were evaluated in this study: Products 2-1 through 2-4 (described in Example 2); soluble ferric pyrophosphate (SFP), lot 112362 manufactured by The Dr. Paul Lohmann Chemical Company, Emmerthal, Germany (“Lohmann”); and ferric sulfate:NTA chelate.
Experimental Details. […] The binding of iron to apotransferrin was monitored at 470 nm, the absorption maximum for ferric transferrin. […]

Chain of human apotransferrin (P02787 20-698): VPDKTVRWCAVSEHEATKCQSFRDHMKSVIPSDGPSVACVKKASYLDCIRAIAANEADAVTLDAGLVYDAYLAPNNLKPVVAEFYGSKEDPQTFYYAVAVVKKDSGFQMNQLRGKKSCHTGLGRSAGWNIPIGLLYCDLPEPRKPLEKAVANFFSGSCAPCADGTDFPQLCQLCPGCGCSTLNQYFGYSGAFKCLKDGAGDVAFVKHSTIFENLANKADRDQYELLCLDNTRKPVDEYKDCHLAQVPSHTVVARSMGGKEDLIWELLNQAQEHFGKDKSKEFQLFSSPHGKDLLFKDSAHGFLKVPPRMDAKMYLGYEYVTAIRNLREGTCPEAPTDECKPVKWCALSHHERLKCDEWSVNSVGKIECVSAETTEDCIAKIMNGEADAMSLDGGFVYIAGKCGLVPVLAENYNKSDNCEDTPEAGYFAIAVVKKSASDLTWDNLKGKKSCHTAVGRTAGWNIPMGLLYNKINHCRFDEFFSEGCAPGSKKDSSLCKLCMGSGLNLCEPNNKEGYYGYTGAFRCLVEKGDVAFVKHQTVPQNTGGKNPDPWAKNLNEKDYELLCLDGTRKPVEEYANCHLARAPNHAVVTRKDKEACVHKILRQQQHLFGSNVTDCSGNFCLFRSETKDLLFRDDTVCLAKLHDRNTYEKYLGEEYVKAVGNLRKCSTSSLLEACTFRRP

Consider ferric citrate, for which, in the data set on macrophages, the “Level of lipid peroxidation” value is recorded as “significantly elevated” and the Phagocytic capacity result was “inhibited in a dose-related manner”. As for soluble ferric pyrophosphate, the “Extent (efficiency) of iron uptake by human apotransferrin” value at human apotransferrin is reported as “near quantitative efficiency”.

As to “ferric sulfate:NTA chelate [ferric sulfate-NTA chelate]”, at human apotransferrin, the “Extent (efficiency) of iron uptake by human apotransferrin” value is “near quantitative efficiency”.
